This assay deals with T1, human S1P1 receptor (Homo sapiens, UniProt P21453).
T1 construct: expressed in transfected cells; membranes from cells stably expressing the S1P1 receptor
Briefly: GTP γ35S binding assay for S1P1 activity. Format: biochemical. To be noted: Activity potency: S1P1 receptor from GTP γ35S; membranes of cells stably expressing the S1P1 receptor; agonist-induced binding. The protocol: Compounds were tested for S1P1 activity using the GTP γ^35S binding assay. These compounds may be assessed for their ability to activate or block activation of the human S1P1 receptor in cells stably expressing the S1P1 receptor. GTP γ^35S binding was measured in the medium containing (mM) HEPES 25, pH 7.4, MgCl2 10, NaCl 100, dithitothreitol 0.5, digitonin 0.003%, 0.2 nM GTP γ^35S, and 5 μg membrane protein in a volume of 150 μl. Test compounds were included in the concentration range from 0.08 to 5,000 nM unless indicated otherwise. Membranes were incubated with 100 μM 5′-adenylylimmidodiphosphate for 30 min, and subsequently with 10 μM GDP for 10 min on ice. Drug solutions and membrane were mixed, and then reactions were initiated by adding GTP γ^35S and continued for 30 min at 25° C. Reaction mixtures were filtered over Whatman GF/B filters under vacuum, and washed three times with 3 mL of ice-cold buffer (HEPES 25, pH7.4, MgCl2 10 and NaCl 100). Filters were dried and mixed with scintillant, and counted for ^35S activity using a β-counter. Agonist-induced GTP γ^35S binding was obtained by subtracting that in the absence of agonist. Binding data were analyzed using a non-linear regression method. In case of antagonist assay, the reaction mixture contained 10 nM S1P in the presence of test antagonist at concentrations ranging from 0.08 to 5000 nM.
On the technique in general: GTPγS resists hydrolysis and so accumulates on activated G proteins.

T1 sequence (P21453 whole entry): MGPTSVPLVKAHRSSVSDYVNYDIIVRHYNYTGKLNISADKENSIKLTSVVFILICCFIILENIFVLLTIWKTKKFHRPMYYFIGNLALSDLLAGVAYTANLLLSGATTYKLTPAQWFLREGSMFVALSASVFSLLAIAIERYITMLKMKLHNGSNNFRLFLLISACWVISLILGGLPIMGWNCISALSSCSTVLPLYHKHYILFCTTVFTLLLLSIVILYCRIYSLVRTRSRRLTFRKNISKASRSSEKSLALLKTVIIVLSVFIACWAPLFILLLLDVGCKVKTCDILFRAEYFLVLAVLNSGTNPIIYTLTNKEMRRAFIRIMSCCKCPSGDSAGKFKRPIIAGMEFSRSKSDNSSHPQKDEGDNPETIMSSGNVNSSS

What is called EC50 is the concentration needed to bring the measured effect to its halfway point. Lower therefore signals higher potency in that assay. `O=P(O)(O)CCCNCc1ccc(CC/N=c2\scc(-c3ccccc3)n2-c2ccccc2)cc1` [Compound 1, (3-{[4-(2-{[(2Z)-3,4-diphenyl-1,3-thiazol-2(3H)-ylidene]amino}ethyl)benzyl]amino}propyl)phosphonic acid] returned an EC50 of 31 nM. This counts as double-digit nanomolar.

`O=P(O)(O)CCCNCc1ccc(CCSc2ncc(-c3ccccc3)n2-c2ccccc2)cc1` [Compound 3, {3-[(4-{2-[(1,5-diphenyl-1H-imidazol-2-yl)thio]ethyl}benzyl)amino]propyl}phosphonic acid] showed an EC50 of 86 nM. Compared with the last compound, the EC50 is about 2.8-fold higher.

For `O=C(O)CCNCc1ccc(CC/N=c2\scc(-c3ccccc3)n2-c2ccccc2)cc1` [Compound 2, 3-{[4-(2-{[(2Z)-3,4-diphenyl-1,3-thiazol-2(3H)-ylidene]amino}ethyl)benzyl]amino}propanoic acid], the EC50 stood at 658 nM.

Source of the values: US20140235585A1, “SUBSTITUTED DIARYL DERIVATIVES AS SPHINGOSINE RECEPTOR MODULATORS” (ALLERGAN, INC., priority 2013, published 2014).
